Data: ChEMBL document CHEMBL1201862, “PubChem BioAssay data set” (2004)
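Each compound was tested at five concentrations against cells in 96-well plates for 48 hours. At the GI50, growth is halved.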 Activity calls are given as the source filed them. Rule as the data show it: active = GI50 up to about 1.1 µM and inactive = higher.

Experiments:
Test in all cases: NCI-60 cell line screen, 48 h
COLO 205 = test system: COLO 205
HCC 2998 = test system: HCC 2998
HOP-62 = test system: HOP-62
MDA-MB-435 = test system: MDA-MB-435
MOLT-4 = test system: MOLT-4
Malme-3M = test system: Malme-3M
OVCAR-4 = test system: OVCAR-4
PC-3 = test system: PC-3
SF-295 = test system: SF-295
SK-MEL-28 = test system: SK-MEL-28
SK-MEL-5 = test system: SK-MEL-5
SNB-75 = test system: SNB-75
SR = test system: SR
T47D = test system: T47D
U-251 = test system: U-251
UACC-62 = test system: UACC-62
UO-31 = test system: UO-31
K562 = test system: K562
SF-539 = test system: SF-539

Measured: GI50

Cc1ccc(S(=O)(=O)ON2C(=O)c3cccc4cc([N+](=O)[O-])cc(c34)C2=O)cc1
inactive: COLO 205 81.5 µM | HCC 2998 23.8 µM | HOP-62 > 100 µM | MDA-MB-435 40.3 µM | MOLT-4 28.6 µM | Malme-3M 44.2 µM | OVCAR-4 93.1 µM | PC-3 > 100 µM | SF-295 > 100 µM | SK-MEL-28 > 100 µM | SK-MEL-5 69.3 µM | SNB-75 41.9 µM | SR 26.7 µM | T47D 51.6 µM | U-251 > 100 µM | UACC-62 49.9 µM | UO-31 42.1 µM

O=C(CN1C(=O)CC(c2ccccc2)(c2ccccc2)C1=O)N1CCN(CCO)CC1
inactive: COLO 205 > 100 µM | HCC 2998 > 100 µM | HOP-62 > 100 µM | K562 > 100 µM | MDA-MB-435 > 100 µM | MOLT-4 > 100 µM | OVCAR-4 > 100 µM | PC-3 > 100 µM | SF-295 > 100 µM | SF-539 > 100 µM | SK-MEL-28 > 100 µM | SK-MEL-5 > 100 µM | SNB-75 > 100 µM | T47D > 100 µM | U-251 > 100 µM | UACC-62 > 100 µM | UO-31 > 100 µM

O=C(Nc1ccc(Cl)cc1)c1cc(S(=O)(=O)Nc2nnc3c(Cl)cc(C(F)(F)F)cn23)c(S)cc1Cl
inactive: COLO 205 > 100 µM | HCC 2998 > 100 µM | HOP-62 54.5 µM | K562 > 100 µM | MDA-MB-435 49.9 µM | MOLT-4 66.8 µM | Malme-3M > 100 µM | OVCAR-4 > 100 µM | PC-3 83 µM | SF-295 44.6 µM | SF-539 > 100 µM | SK-MEL-28 > 100 µM | SK-MEL-5 96.4 µM | SR 29.6 µM | T47D > 100 µM | U-251 56.5 µM | UO-31 > 100 µM

CC1CCC(=O)C(C(=O)CC2CC(=O)N(C)C(=O)C2)C1 (stereo not drawn)
inactive: COLO 205 > 100 µM | HCC 2998 > 100 µM | HOP-62 > 100 µM | K562 > 100 µM | MDA-MB-435 > 100 µM | MOLT-4 > 100 µM | Malme-3M > 100 µM | OVCAR-4 > 100 µM | PC-3 > 100 µM | SF-295 > 100 µM | SF-539 > 100 µM | SK-MEL-28 > 100 µM | SK-MEL-5 > 100 µM | SNB-75 35.3 µM | T47D > 100 µM | U-251 > 100 µM | UACC-62 > 100 µM | UO-31 > 100 µM

Oc1cc(-c2ccc3ccccc3c2)nc2ncccc12
inactive: COLO 205 4.05 µM | HCC 2998 9.4 µM | HOP-62 21.7 µM | K562 2.7 µM | MOLT-4 4.06 µM | Malme-3M 13.1 µM | OVCAR-4 12.1 µM | SF-539 6.95 µM | SK-MEL-28 8.63 µM | SNB-75 11.5 µM | SR 2.14 µM | T47D 11.6 µM | UACC-62 5.41 µM | UO-31 18.1 µM
